Molecular target: T1, cyclooxygenase (COX)-2 (Homo sapiens, UniProt P35354)
T1 construct: gene PTGS2
T1 sequence (P35354 18-604): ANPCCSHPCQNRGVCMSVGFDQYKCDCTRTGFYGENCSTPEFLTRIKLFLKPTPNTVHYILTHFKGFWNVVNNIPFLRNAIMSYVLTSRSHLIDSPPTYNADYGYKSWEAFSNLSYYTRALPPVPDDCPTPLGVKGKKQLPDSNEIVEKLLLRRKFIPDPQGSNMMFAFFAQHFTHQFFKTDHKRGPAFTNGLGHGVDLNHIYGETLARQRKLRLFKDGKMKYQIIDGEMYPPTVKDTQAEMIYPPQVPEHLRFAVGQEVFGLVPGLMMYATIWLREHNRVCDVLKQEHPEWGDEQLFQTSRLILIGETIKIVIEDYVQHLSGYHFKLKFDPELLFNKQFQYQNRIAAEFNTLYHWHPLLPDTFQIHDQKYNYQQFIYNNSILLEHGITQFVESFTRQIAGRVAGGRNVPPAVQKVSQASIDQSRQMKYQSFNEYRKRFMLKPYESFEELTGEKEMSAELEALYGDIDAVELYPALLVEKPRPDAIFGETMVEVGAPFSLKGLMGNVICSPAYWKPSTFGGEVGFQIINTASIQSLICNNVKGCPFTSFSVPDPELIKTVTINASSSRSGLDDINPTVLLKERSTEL
Assay: LPS-stimulated human whole blood PGE2 (RIA); also HCA7 cells (COX-2 only), IC50 […], with washout

CC(C)(Oc1ccc(CCNC(=O)c2ccc(Cl)cc2)cc1)C(=O)NS(=O)(=O)c1ccccc1 [compound 6, AA520]
IC50: 0.1 µM

Reference: publication PMC11628281, “A sulfonimide derivative of bezafibrate as a dual inhibitor of cyclooxygenase-2 and PPARα” (Frontiers in Pharmacology, 2024)
